From patent US12539333B2, “Tetracycline complexes with sustained activity” (FRAUNHOFER-GESELLSCHAFT ZUR FÖRDERUNG DER ANGEWANDTEN …, priority 2018, dated 2026)
Values after ≈ are worked out from the molar mass of the structure shown. “Also recorded” adds a separate entry of the source.

How the values were obtained:
[1] = Stability in aqueous environment (HPLC)
Experimental: For the stability investigations an Agilent 1200 Series system with a XTerra RP18 5 μm 3.9×150 column (Waters) was utilized. 10 μl sample volume were injected at a flowrate of 1.0 ml/min. For this method was also a gradient program applied. The mobile phase started with a composition of water/methanol (95/5+0.1% TFA) (A) and was shifted over 7 minutes to pure methanol (0.1% TFA) (B). After 3 minutes the mobile phase returned to solvent A within 1 minute. The retention time was 4.8 minutes. For the evaluation and extraction of the chromatograms, the Chem32 software was used.
For the stability investigation, 10 mg samples for minocycline and 20 mg for the complex were weighed into 4 ml glass vials. One of each vial was incubated in 4 ml of PBS pH 7.0 and another vial was exposed to 4 ml of an acidic solution at pH 2.3, which was adjusted with hydrochloric acid. Until the 9th day, samples were taken every day, while the removed volume was not replaced. From there on the intervals were stretched to 3 to 4 days.

S. aureus ATCC 29213 = experiment: Agar disc diffusion test; assay type: cell-based, Staphylococcus aureus; settings: 30 μg of minocycline per disc; 35° C., 18 h
Experimental: . The procedure followed the recommendations set by EUCAST.
Test substance was the minocycline complex containing 10 mg/ml minocycline and controls were minocycline dissolved in ethanol (10 mg/ml), and pure ethanol. Solutions were diluted 3:7 with ethanol and immediately thereafter each 10 μl were pipetted to unloaded antibiotic test discs with a diameter of 6 mm (BD, Allschwil, Switzerland), thus each discs (except for ethanol control) contained 30 μg of minocycline. Overnight culture of S. aureus ATCC 29213 was suspended to McFarland 0.5, each 100 μl was spread on Mueller-Hinton-agar plate (Oxoid, Basingstoke, GB). Following the evaporation of the solvent, the test discs were placed on the plates. After incubation at 35° C. for 18 h, the diameters of the inhibition zones were measured.

[2] = test system: Streptococcus gordonii ATCC 10558; experiment: MIC determination of eluates and calculated effective concentration of minocycline; assay type: cell-based; settings: for Effective concentration of minocycline, calculated based on the MIC of the eluates (dilutions): S. gord.
From the text: (§1) In order to assess the release kinetics and biological activity of the active substances, an approach was chosen taking into consideration the conditions in the oral cavity, namely the flow rate (turnover) and composition of the sulcus in the gingival crevicular fluid (as described in Goodson, J M (2003), Periodontol 2000 31:43-54; Tew, J G et al. (1985), Infect Immun 49:487-93).

[3] = test system: Porphyromonas gingivalis ATCC 33277; experiment: as above; assay type: cell-based; settings: for Effective concentration of minocycline, calculated based on the MIC of the eluates (dilutions): P. ging.
From the text: as §1

## 1:2 Complex of Minocycline (Free Base) and Magnesium Stearate [Example 1]
[1]; PBS pH 7.0, 37° C.
  time after which the minocycline peak is still visible: ≥ 3 weeks
[1]; neutral conditions, 37° C.
  decay in aqueous environment: much slower
S. aureus ATCC 29213
  diameter of the inhibition zone: 24 mm

## CN(C)c1ccc(O)c2c1C[C@H]1C[C@H]3[C@H](N(C)C)C(O)=C(C(N)=O)C(=O)[C@@]3(O)C(O)=C1C2=O [Minocycline, (4S,4aS,5aR,12aR)-4,7-bis(dimethylamino)-1,10,11,12a-tetrahydroxy-3,12-dioxo-4a,5,5a,6-tetrahydro-4H-tetracene-2-carboxamide]
[1]; PBS pH 7.0, 37° C.
  time within which the minocycline peak vanishes: ≤ 3 days
[1]; acidic conditions pH 2.3, 37° C.
  decay in aqueous environment: decomposition process is slower; also recorded: more moderate decay
[1]; buffer (PBS) pH 7.1, 37° C.
  time to complete decomposition: 3 days
S. aureus ATCC 29213
  diameter of the inhibition zone: 26 mm
[2]; Streptococcus gordonii, ATCC10558, S. gordonii ATCC 10558
  MIC: 0.5 µg/mL (≈ 1.09 µM)
[2]; eluate 1 h
  Effective concentration of minocycline, calculated based on the MIC of the eluates (dilutions): >16000
[2]; eluate 2 h
  Effective concentration of minocycline, calculated based on the MIC of the eluates (dilutions): 8000
[2]; eluate 4 h
  Effective concentration of minocycline, calculated based on the MIC of the eluates (dilutions): 2000
[2]; eluate 24 h
  Effective concentration of minocycline, calculated based on the MIC of the eluates (dilutions): 250
[2]; eluate 2 d
  Effective concentration of minocycline, calculated based on the MIC of the eluates (dilutions): 62.5
[2]; eluate 7 d
  Effective concentration of minocycline, calculated based on the MIC of the eluates (dilutions): 4
[2]; eluate 14 d
  Effective concentration of minocycline, calculated based on the MIC of the eluates (dilutions): <2
[2]; eluate 21 d
  Effective concentration of minocycline, calculated based on the MIC of the eluates (dilutions): <2
[2]; eluate 28 d
  Effective concentration of minocycline, calculated based on the MIC of the eluates (dilutions): <2
[2]; eluate 35 d
  Effective concentration of minocycline, calculated based on the MIC of the eluates (dilutions): <2
[2]; eluate 42 d
  Effective concentration of minocycline, calculated based on the MIC of the eluates (dilutions): <2
[3]; Porphyromonas gingivalis, ATCC33277, P. gingivalis ATCC 33277
  MIC: 0.25 µg/mL (≈ 0.546 µM)
[3]; eluate 1 h
  Effective concentration of minocycline, calculated based on the MIC of the eluates (dilutions): >32000
[3]; eluate 2 h
  Effective concentration of minocycline, calculated based on the MIC of the eluates (dilutions): 2000
[3]; eluate 4 h
  Effective concentration of minocycline, calculated based on the MIC of the eluates (dilutions): 1000
[3]; eluate 24 h
  Effective concentration of minocycline, calculated based on the MIC of the eluates (dilutions): 500
[3]; eluate 2 d
  Effective concentration of minocycline, calculated based on the MIC of the eluates (dilutions): 62.5
[3]; eluate 7 d
  Effective concentration of minocycline, calculated based on the MIC of the eluates (dilutions): 62.5
[3]; eluate 14 d
  Effective concentration of minocycline, calculated based on the MIC of the eluates (dilutions): 4
[3]; eluate 21 d
  Effective concentration of minocycline, calculated based on the MIC of the eluates (dilutions): <1
[3]; eluate 28 d
  Effective concentration of minocycline, calculated based on the MIC of the eluates (dilutions): <1
[3]; eluate 35 d
  Effective concentration of minocycline, calculated based on the MIC of the eluates (dilutions): <1
[3]; eluate 42 d
  Effective concentration of minocycline, calculated based on the MIC of the eluates (dilutions): <1
